Consider one compound from patent US12208092B2, “Compositions and methods for administering paltusotine to patients with hepatic impairment” (CRINETICS PHARMACEUTICALS, INC., priority 2023, dated 2025).

Structures are written as SMILES. ≈ marks a conversion by molar mass, not a printed value.

One series relates to plasma IGF-1. The series is described as follows: chronic oral 14-day administration, suppression of IGF-1 in rat. Format: in vivo. The method, then:
(§1) The in vivo pharmacological efficacy of paltusotine has been examined in rat and dog. In the rat, acute efficacy was evaluated by examining the suppression of plasma GH in response to a challenge with rat growth hormone releasing hormone (rGHRH). […] The effects of chronic, oral, 14-day administration of paltusotine were evaluated by measuring the sustained suppression of IGF-1 in the rat.

Series [1] can be described thus: plasma exposure in 14-day rat study. It is filed as in vivo. The settings on record: 10 mg/kg/day oral.
A short description of series [2]: SAD/MAD oral administration in healthy adult male subjects. It is filed as in vivo, human. The settings on record: 1.25 to 20 mg (SAD) and 5 to 30 mg (MAD). The method, then:
A dose of 20 mg paltusotine was chosen for the oral dose in the ADME study as a possible therapeutic dose estimated by PD activities of suppression of growth hormone releasing hormone (GHRH) stimulated GH secretion.

In the next series the test system is plasma GH. The series is described as follows: suppression of plasma GH after rGHRH challenge in rat. Format: in vivo. The method, then: as §1
The nature of series [3]: Phase 1 mass balance (ADME) study, single oral 20 mg [14C]-paltusotine, healthy male volunteers. It is filed as in vivo, human. The method, then:
This was a Phase I, open-label, single-dose study with a primary objective to characterize the absorption, distribution, metabolism, excretion, and mass balance of a single oral dose of 20 mg paltusotine containing 3.0 MBq (80 μCi) of [^14C]-labeled paltusotine in healthy male subjects.
Subjects received a single oral dose of 20 mg paltusotine as an oral solution containing 3.0 MBq (80 μCi) of radioactivity on Day 1. For oral dosing, the total volume ingested by the subject, including the study drug (10 mL), the rinse solutions (a total of 100 mL; 2 drug vial rinses with 50 mL of water per rinse), and tap water (130 mL), was 240 mL. The subjects had to ingest all solutions in the upright position within 2 minutes between 8 AM and 11 AM after an overnight fast of at least 10 hours. Fasting continued for a period of 4 hours after oral drug administration. The time of oral dosing administration was recorded, and the empty study drug vials were measured for residual radioactivity.
Blood samples were taken for the analysis of unlabeled paltusotine and [^14C]-paltusotine concentrations, and metabolite profiling. Blood samples for analysis of pharmacokinetic parameters of paltusotine in plasma, quantification of total radioactivity in blood and plasma, and metabolite profiling were collected at predose and 0.25, 0.5, 0.75, 1, 1.5, 2, 3, 4, 8, 12, 24, 48, 72, 120, and 168 hours postdose (and every 48 hours thereafter, if needed, to assess radioactivity).
Urine was collected for the analysis of total radioactivity, for quick counts of total radioactivity, and for metabolite profiling. The subjects were instructed to urinate completely before study drug administration and at the end of each collection interval. A baseline urine sample was collected within 12 hours prior to each study drug administration. Urine was collected for quantification of total radioactivity and metabolite profiling at predose, 3 intervals on Day 1 (at 0-4, 4-8, and 8-24 hours postdose), and every 24 hours thereafter until discharge criteria were met.
All fecal excretions were collected for the analysis of total radioactivity, for quick counts of total radioactivity, and for metabolite profiling. A baseline fecal sample was collected within 48 hours prior to study drug administration and could be collected at home. The baseline sample was taken from the last bowel movement before study drug intake. Feces were collected for quantification of total radioactivity and metabolite profiling at predose and in 24-hour intervals until discharge criteria were met.
Analysis of paltusotine in plasma was performed by Q2 Solutions (IQVIA, Itaca, NY, USA) using a validated liquid chromatography-tandem mass spectrometry (LC-MS/MS) method. The lower limit of quantitation (LLOQ) for paltusotine in plasma was 0.5 ng/mL.
Analysis of total ^14C radioactivity in plasma, whole blood, urine, and feces was performed at the bioanalytic laboratory of PRA Heath Sciences via a validated liquid scintillation counting method. The LLOQ for total reactivity was 3.36 ng-eq/mL in plasma and 5.6 ng-eq/mL in whole blood.
Metabolite profiling of plasma, urine, and feces was performed at WuXi AppTec (Cranbury, NJ, USA). For plasma, samples were pooled by timepoint (0.5, 1, 1.5, 2, 4, 8, 12, and 24 hours postdose) for metabolite profiling. In addition, plasma samples were pooled by participant across timepoints (0-48 hours) using the Hamilton method and analyzed to determine the quantitative profile of radiolabeled components. Prior to radio-profiling, plasma samples were extracted using solid phase extraction.
For urine and feces, samples were pooled by timepoint (0-8, 8-24, and 24-72 hours postdose). Prior to radio-profiling, urine samples were centrifuged to remove solids, and fecal homogenates were extracted with acetonitrile. Plasma and fecal extracts and urine supernatants were subjected to LC separation and fraction collection. […]

[4] abbreviates: scaled from paltusotine and excretory metabolites.

`N#Cc1cccc(-c2ccc3ncc(-c4cc(F)cc(F)c4)c(N4CCC(N)CC4)c3c2)c1O` [paltusotine, 3-[4-(4-amino-1-piperidyl)-3-(3,5-difluorophenyl)-6-quinolyl]-2-hydroxybenzonitrile]: the “dose efficacious in suppressing plasma IGF-1 for up to 14 days” value with plasma IGF-1 is more than 10 mg/kg/day. Besides, in series [1] (read-out: day-last mean plasma AUC0-24), the AUC(0-t) came to 975 ng·h/mL. Moreover, the Cmax in series [1] (read-out: day-last mean plasma Cmax) worked out at 127 ng/mL. In addition, in series [2], the AUC dose dependence result is recorded as “increased dose-dependently”. For the same compound, the EC50 with plasma GH (Rattus norvegicus, po, read-out: plasma EC50 for GH suppression) worked out at 0.011 µg/mL (≈ 0.0241 µM). The “doses that significantly and dose dependently suppressed GH relative to vehicle” value in the series with plasma GH (oral, acute, rGHRH challenge) was not below 3 mg/kg. For the same compound, the component in feces in series [3] (feces) is 39.7 % of the dose. Further, in series [3] (human plasma 0-48 h), the “drug-related components detected in plasma” value is “the only drug-related component detected in human plasma (0-48 h) was paltusotine”. Further, in series [3] (human, in vivo), the “administered radioactivity recovered in the feces” value is listed as 90%, the “administered radioactivity recovered in the urine” value came out at 3.9%, the “dose excreted in the feces by metabolic profiling of excreta” value is listed as “approximately 84%” and the “total radioactivity excreted over 120 h” value is recorded as 88 % of the administered dose. In addition, in series [3] (setting [4]), the “glucuronidation pathway share of metabolic clearance” value is reported as 27.9 % of the dose and the “oxidative route share of metabolic clearance” value is 14.3%. Also, in series [3] (urine), the component in urine was 1.33 % of dose; the “unchanged paltusotine and metabolites excreted in urine” value is given as < 4 % of the total administered radioactivity. For the same compound, in series [3] (urine and feces), the “total mean recovery of administered radioactivity” value is 94%.
